{"source": "ChEMBL document CHEMBL5131502", "about": "“Improving the treatment of Parkinson's disease: Structure-based development of novel 5-HT2A receptor antagonists/inverse agonists” (Eur J Med Chem, 2022)", "key": {"[1]": {"target": "T1, 5-hydroxytryptamine receptor 2A (Homo sapiens, UniProt P28223)", "T1 sequence (P28223 whole entry)": "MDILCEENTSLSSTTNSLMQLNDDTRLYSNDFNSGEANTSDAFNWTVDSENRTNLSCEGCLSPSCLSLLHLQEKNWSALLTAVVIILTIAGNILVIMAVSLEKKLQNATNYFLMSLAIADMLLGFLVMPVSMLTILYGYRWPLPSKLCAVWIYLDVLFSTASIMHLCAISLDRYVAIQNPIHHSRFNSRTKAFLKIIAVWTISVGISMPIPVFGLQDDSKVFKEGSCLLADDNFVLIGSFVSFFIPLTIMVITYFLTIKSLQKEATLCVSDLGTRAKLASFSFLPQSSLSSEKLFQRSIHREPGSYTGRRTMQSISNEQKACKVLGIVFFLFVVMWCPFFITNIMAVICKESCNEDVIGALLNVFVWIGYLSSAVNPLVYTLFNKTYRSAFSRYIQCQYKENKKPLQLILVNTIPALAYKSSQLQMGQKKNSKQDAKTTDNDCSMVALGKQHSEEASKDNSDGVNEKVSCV", "test": "Antagonist activity at 5-HT2A receptor (unknown origin) expressed in CHO-K1 cells assessed as reduction in intracellular Ca2+ mobilization incubated for 15 mins by FLIPR assay", "type": "functional, cell-based"}, "[2]": {"target": "T1, 5-hydroxytryptamine receptor 2A", "test": "Inverse agonist activity at 5-HT2A receptor (unknown origin) expressed in mouse NIH3T3 cells using o-nitrophenyl-D-galacto pyranoside incubated for 120 hrs", "type": "functional, cell-based"}, "[3]": {"system": "Rattus norvegicus", "test": "Antiparkinson's activity in rat assessed as reduction of DOI-induced head-twitching at 6 micromol/kg, IG measured after 1 hr", "type": "functional, organism-based", "settings": "dose 6.0 µmol/kg"}, "[4]": {"test": "Metabolic stability in Sprague-Dawley rat liver microsomes assessed as compound remaining at 100 uM […] followed by NADPH addition by LC/MS analysis", "type": "ADME, Microsome", "settings": "read-out: Stability"}, "[5]": {"test": "Metabolic stability in Sprague-Dawley rat liver microsomes assessed as half life at 100 uM preincubated for 10 mins followed by NADPH addition by LC/MS analysis", "type": "ADME, Microsome"}, "[6]": {"test": "Metabolic stability in human liver microsomes assessed as half life at 100 uM preincubated for 10 mins followed by NADPH addition by LC/MS analysis", "type": "ADME, Microsome"}, "[7]": {"test": "Metabolic stability in Sprague-Dawley rat liver microsomes assessed as intrinsic clearance at 100 uM preincubated for 10 mins followed by NADPH addition by LC/MS analysis", "type": "ADME, Microsome", "settings": "read-out: CLH"}, "[8]": {"test": "Metabolic stability in human liver microsomes assessed as intrinsic clearance at 100 uM preincubated for 10 mins followed by NADPH addition by LC/MS analysis", "type": "ADME, Microsome", "settings": "read-out: CLH"}, "[9]": {"test": "Metabolic stability in human liver microsomes assessed as compound remaining at 100 uM […] followed by NADPH addition by LC/MS analysis", "type": "ADME, Microsome", "settings": "read-out: Stability"}, "[10]": {"system": "Rattus norvegicus", "test": "Antiparkinson's activity in rat assessed as reduction in DOI-induced head-twitching at 1.5 to 6 micromol/kg, IG measured after 1 hr", "type": "functional, organism-based", "settings": "dose 1.5-6 µmol/kg"}, "[11]": {"target": "T1, 5-hydroxytryptamine receptor 2A", "test": "Potency index, ratio of pimavanserin IC50 to test compound IC50 for antagonist activity at 5-HT2A receptor (unknown origin) expressed in CHO-K1 cells assessed as reduction in intracellular Ca2+ mobilization incubated for 15 mins by FLIPR assay", "type": "functional, cell-based"}, "[12]": {"target": "T1, 5-hydroxytryptamine receptor 2A", "test": "Potency index, ratio of pimavanserin IC50 to test compound IC50 for inverse agonist activity at 5-HT2A receptor (unknown origin) expressed in mouse NIH3T3 cells using o-nitrophenyl-D-galacto pyranoside incubated for 120 hrs", "type": "cell-based"}}, "note": "Calls of active or inactive are those of the source. No cut-off for these calls is given here.", "data": [{"smiles": "CC(C)COc1ccc(CNC(=O)N(Cc2ccc(F)cc2)C2CCC(N(C)C)C2)cc1", "note": "(configuration not stated)", "values": [{"measurement": "IC50", "setting": "[1]", "result": 110, "unit": "nM"}, {"measurement": "IC50", "setting": "[2]", "result": 101, "unit": "nM"}]}, {"smiles": "CN1CCC(N(Cc2ccc(F)cn2)C(=O)NCc2ccc(CCC(F)(F)F)cc2)CC1", "values": [{"measurement": "IC50", "setting": "[1]", "result": 18.3, "unit": "nM"}, {"measurement": "IC50", "setting": "[2]", "result": 872, "unit": "nM"}]}, {"smiles": "CC(C)COc1ccc(CNC(=O)N(Cc2ccc(F)cc2)C2CCN(C)CC2)cc1", "values": [{"measurement": "Activity", "setting": "[3]", "result": "Active"}]}, {"smiles": "CN1CCC(N(Cc2ccc(F)cn2)C(=O)NCc2ccc(OCCCF)cc2)CC1", "values": [{"measurement": "IC50", "setting": "[1]", "result": 1.93, "unit": "nM"}, {"measurement": "remaining at 100 µM", "setting": "[4]", "result": 80.4, "unit": "%"}, {"measurement": "IC50", "setting": "[2]", "result": 3.05, "unit": "nM"}, {"measurement": "half-life at 100 µM", "setting": "[5]", "result": "> 186", "unit": "min"}, {"measurement": "half-life at 100 µM", "setting": "[6]", "result": "> 186", "unit": "min"}, {"measurement": "CLint scaled at 100 µM", "setting": "[7]", "result": "< 13.4", "unit": "mL/min/kg"}, {"measurement": "CLint scaled at 100 µM", "setting": "[8]", "result": "< 6.7", "unit": "mL/min/kg"}, {"measurement": "remaining at 100 µM", "setting": "[9]", "result": 87.8, "unit": "%"}]}, {"smiles": "CC(C)COc1ccc(CNC(=O)N(Cc2ccc(F)cc2)C2CCN(CCN(C)C)CC2)cc1", "values": [{"measurement": "IC50", "setting": "[1]", "result": 75.4, "unit": "nM"}, {"measurement": "IC50", "setting": "[2]", "result": "> 500", "unit": "nM"}]}, {"smiles": "CN1CCC(N(Cc2ccc(F)cn2)C(=O)NCc2ccc(OCC(F)(F)F)cc2)CC1", "values": [{"measurement": "Activity", "setting": "[10]", "result": "Active"}]}, {"smiles": "CC(C)COc1ccc(CNC(=O)N(Cc2ccc(F)nn2)C2CCN(C)CC2)cc1", "values": [{"measurement": "IC50", "setting": "[2]", "result": "> 500", "unit": "nM"}]}, {"smiles": "CC(C)COc1ccc(CNC(=O)N(Cc2ccc(F)cc2)C2CCN(CC(=O)N(C)C)CC2)cc1", "values": [{"measurement": "IC50", "setting": "[1]", "result": 252, "unit": "nM"}, {"measurement": "IC50", "setting": "[2]", "result": 86.4, "unit": "nM"}]}, {"smiles": "CC(C)CCc1ccc(CNC(=O)N(Cc2ccc(F)cn2)C2CCN(C)CC2)cc1", "values": [{"measurement": "IC50", "setting": "[1]", "result": 67.2, "unit": "nM"}]}, {"smiles": "CC(C)COc1ccc(CNC(=O)N(Cc2ccc(F)cc2)C2CC(N(C)C)C2)cc1", "note": "(configuration not stated)", "values": [{"measurement": "IC50", "setting": "[1]", "result": 139, "unit": "nM"}, {"measurement": "IC50", "setting": "[2]", "result": 159, "unit": "nM"}]}, {"smiles": "CC(C)COc1ccc(CNC(=O)N(Cc2ccc(F)cn2)C2CCN(C)CC2)cc1", "values": [{"measurement": "Ratio IC50", "setting": "[11]", "result": 3}, {"measurement": "Ratio IC50", "setting": "[12]", "result": 2}]}, {"smiles": "CC(C)COc1ccc(CNC(=O)N(Cc2ccc(F)nc2)C2CCN(C)CC2)cc1", "values": [{"measurement": "IC50", "setting": "[1]", "result": "> 500", "unit": "nM"}, {"measurement": "IC50", "setting": "[2]", "result": "> 500", "unit": "nM"}]}, {"smiles": "CC(C)COc1ccc(CNC(=O)N(Cc2cccc3[nH]cnc23)C2CCN(C)CC2)cc1", "values": [{"measurement": "IC50", "setting": "[1]", "result": "> 500", "unit": "nM"}, {"measurement": "IC50", "setting": "[2]", "result": "> 500", "unit": "nM"}, {"measurement": "Ratio IC50", "setting": "[11]", "result": "> 15"}, {"measurement": "Ratio IC50", "setting": "[12]", "result": "> 10"}]}, {"smiles": "CC(C)Cc1ccc(CNC(=O)N(Cc2ccc(F)cn2)C2CCN(C)CC2)cc1", "values": [{"measurement": "IC50", "setting": "[1]", "result": 26.4, "unit": "nM"}, {"measurement": "IC50", "setting": "[2]", "result": 8.3, "unit": "nM"}]}]}
